Assay results as given in ChEMBL document CHEMBL5724914, “Linking interpersonal differences in gut microbiota composition and drug biotransformation activity” (2024).

Legend:
[1] = (§1) The drug is tested on Z-030 corresponding to mouse gut metagenome with ENA study accession number: PRJEB37062 and ENA sample accession number: ERS12561829 for biotransformation under anaerobic condition. The drug concentrations were measured over 9 timepoints collected between 0 and 24 hours of incubation by liquid-chromatography-coupled mass spectrometry (LC–MS); details: 2 µM
[2] = human gut metagenome, 24 h, 2 µM
[3] = as §1, with “Z-014” for “Z-030”, “rat” for “mouse”, “ERS12561814” for “ERS12561829”; details: 2 µM
[4] = human gut metagenome, 24 h, 2 µM; remark: listed apart in the source
[5] = as §1, with “Z-020” for “Z-030”, “rabbit” for “mouse”, “ERS12561819” for “ERS12561829”; details: 2 µM
[6] = as §1, with “Z-011” for “Z-030”, “ERS12561811” for “ERS12561829”; details: 2 µM
[7] = as §1, with “Z-016” for “Z-030”, “ERS12561815” for “ERS12561829”; details: 2 µM
[8] = human gut metagenome, 24 h, 2 µM; remark: listed apart in the source
[9] = human gut metagenome, 24 h, 2 µM; remark: listed apart in the source
[10] = as §1, with “WLS-077” for “Z-030”, “human” for “mouse”, “ERS12561750” for “ERS12561829”; details: 2 µM
[11] = human gut metagenome, 24 h, 2 µM; remark: listed apart in the source
[12] = as §1, with “Z-019” for “Z-030”, “rat” for “mouse”, “ERS12561818” for “ERS12561829”; details: 2 µM
[13] = human gut metagenome, 24 h, 2 µM; remark: listed apart in the source
[14] = as §1, with “WLS-098” for “Z-030”, “human” for “mouse”, “ERS12561754” for “ERS12561829”; details: 2 µM
[15] = as §1, with “Z-028” for “Z-030”, “ERS12561827” for “ERS12561829”; details: 2 µM
[16] = as §1, with “Z-023” for “Z-030”, “to” for “to mouse gut”, “ERS12561822” for “ERS12561829”; details: 2 µM
[17] = human gut metagenome, 24 h, 2 µM; remark: listed apart in the source
[18] = as §1, with “WLS-007” for “Z-030”, “human” for “mouse”, “ERS12561742” for “ERS12561829”; details: 2 µM
[19] = human gut metagenome, 24 h, 2 µM; remark: listed apart in the source
[20] = as §1, with “Z-013” for “Z-030”, “rabbit” for “mouse”, “ERS12561813” for “ERS12561829”; details: 2 µM
Note: call rule not given here.

SMILES	Bacterial Biotransformation [1]	Bacterial Biotransformation [2]	Bacterial Biotransformation [3]	Bacterial Biotransformation [4]	Bacterial Biotransformation [5]	Bacterial Biotransformation [6]	Bacterial Biotransformation [7]	Bacterial Biotransformation [8]	Bacterial Biotransformation [9]	Bacterial Biotransformation [10]	Bacterial Biotransformation [11]	Bacterial Biotransformation [12]	Bacterial Biotransformation [13]	Bacterial Biotransformation [14]	Bacterial Biotransformation [15]	Bacterial Biotransformation [16]	Bacterial Biotransformation [17]	Bacterial Biotransformation [18]	Bacterial Biotransformation [19]	Bacterial Biotransformation [20]
O=C1NCC2(CCN(CCc3ccccc3)CC2)O1 [FENSPIRIDE]	Compound NOT metabolized	Compound NOT metabolized	Compound NOT metabolized	Compound metabolized	Compound NOT metabolized	Compound NOT metabolized	Compound NOT metabolized	Compound NOT metabolized	Compound NOT metabolized	Compound NOT metabolized	Compound NOT metabolized	Compound NOT metabolized	Compound NOT metabolized	Compound NOT metabolized	Compound NOT metabolized	Compound NOT metabolized	Compound NOT metabolized	Compound NOT metabolized	Compound metabolized	Compound NOT metabolized
OC(Cn1cncn1)(Cn1cncn1)c1ccc(F)cc1F [FLUCONAZOLE]	Compound NOT metabolized	Compound metabolized	Compound NOT metabolized	Compound metabolized	Compound NOT metabolized	Compound NOT metabolized	Compound NOT metabolized	Compound NOT metabolized	Compound NOT metabolized	Compound NOT metabolized	Compound NOT metabolized	Compound NOT metabolized	Compound metabolized	Compound metabolized	Compound NOT metabolized	Compound metabolized	Compound metabolized	Compound metabolized	Compound metabolized	Compound NOT metabolized
CNCCC(Oc1ccc(C(F)(F)F)cc1)c1ccccc1 (stereo not given) [FLUOXETINE]	Compound NOT metabolized	Compound NOT metabolized	Compound NOT metabolized	Compound NOT metabolized	Compound NOT metabolized	Compound NOT metabolized	Compound NOT metabolized	Compound metabolized	Compound NOT metabolized	Compound NOT metabolized	Compound NOT metabolized	Compound NOT metabolized	Compound NOT metabolized	Compound NOT metabolized	Compound NOT metabolized	Compound NOT metabolized	Compound NOT metabolized	Compound NOT metabolized	Compound NOT metabolized	Compound NOT metabolized
O=C(CCCN1CCC(O)(c2ccc(Cl)cc2)CC1)c1ccc(F)cc1 [HALOPERIDOL]	Compound NOT metabolized	Compound NOT metabolized	Compound NOT metabolized	Compound metabolized	Compound NOT metabolized	Compound NOT metabolized	Compound NOT metabolized	Compound NOT metabolized	Compound NOT metabolized	Compound NOT metabolized	Compound NOT metabolized	Compound NOT metabolized	Compound NOT metabolized	Compound metabolized	Compound NOT metabolized	Compound metabolized	Compound metabolized	Compound NOT metabolized	Compound NOT metabolized	Compound NOT metabolized
CCCCC1=NC2(CCCC2)C(=O)N1Cc1ccc(-c2ccccc2-c2nnn[nH]2)cc1 [IRBESARTAN]	Compound NOT metabolized	Compound metabolized	Compound NOT metabolized	Compound metabolized	Compound metabolized	Compound NOT metabolized	Compound NOT metabolized	Compound metabolized	Compound metabolized	Compound metabolized	Compound metabolized	Compound NOT metabolized	Compound metabolized	Compound metabolized	Compound NOT metabolized	Compound metabolized	Compound metabolized	Compound metabolized	Compound metabolized	Compound NOT metabolized
NC(CO)(CO)CO.O=C(c1ccccc1)c1ccc2n1CCC2C(=O)O (stereo not given) [KETOROLAC TROMETHAMINE]	Compound NOT metabolized	Compound metabolized	Compound NOT metabolized	Compound metabolized	Compound metabolized	Compound NOT metabolized	Compound metabolized	Compound metabolized	Compound metabolized	Compound metabolized	Compound metabolized	Compound NOT metabolized	Compound metabolized	Compound metabolized	Compound NOT metabolized	Compound metabolized	Compound metabolized	Compound metabolized	Compound metabolized	Compound NOT metabolized
CC[C@H](C)C(=O)O[C@H]1C[C@@H](C)C=C2C=C[C@H](C)[C@H](CC[C@@H]3C[C@@H](O)CC(=O)O3)[C@H]21 [LOVASTATIN]	Compound metabolized	Compound metabolized	Compound NOT metabolized	Compound NOT metabolized	Compound metabolized	Compound metabolized	Compound NOT metabolized	Compound NOT metabolized	Compound NOT metabolized	Compound NOT metabolized	Compound NOT metabolized	Compound metabolized	Compound NOT metabolized	Compound NOT metabolized	Compound metabolized	Compound metabolized	Compound NOT metabolized	Compound NOT metabolized	Compound NOT metabolized	Compound NOT metabolized
COc1ccc2[nH]c([S+]([O-])Cc3ncc(C)c(OC)c3C)nc2c1 (stereo not given) [OMEPRAZOLE]	Compound metabolized	Compound metabolized	Compound NOT metabolized	Compound metabolized	Compound NOT metabolized	Compound NOT metabolized	Compound metabolized	Compound metabolized	Compound metabolized	Compound metabolized	Compound metabolized	Compound NOT metabolized	Compound metabolized	Compound metabolized	Compound metabolized	Compound NOT metabolized	Compound metabolized	Compound metabolized	Compound metabolized	Compound NOT metabolized
